Measured values taken from patent publication US20140275169A1, “Combination Therapies for Enhancing Protein Degradation” (The Regents of the University of Michigan, priority 2013, published 2014).

What was measured:
Usp14 = Usp14 (Homo sapiens, UniProt P54578); test: Inhibition of Usp14 (statement in overview); format: biochemical
endogenous total tau = test: Degradation of endogenous total tau in primary cortical rat neurons, SDS-PAGE immunoblot with tau-5 antibody; format: cell-based; settings: 24 hours, individual compounds (lanes 2 and 3) and combination (lane 4)
Method: These independently duplicated experiments were carried out in primary cortical rat neurons for 24 hours. Tau was detected after SDS-PAGE immunoblot analysis, using the tau-5 antibody.
The combined effect of Usp14 inhibitors and Hsp70 inhibitors on tau levels is shown to be synergistic in this experiment in that this effect (lane 4) is greater than the sum of the individual effects of these compounds (lanes 2 and 3). To cite one example, in FIG. 5A the individual effects are approximately 8% and 2% for Usp14 and Hsp70 inhibitors, respectively, while the combined effect is approximately 71%, far greater than the expected additive effect of approximately 10%.
This experiment was carried out in primary cortical rat neurons for 48 hours. Tau was detected after SDS-PAGE immunoblot analysis, using the tau-5 antibody.
This experiment was carried out in primary cortical rat neurons for 24 hours. Tau was detected after SDS-PAGE immunoblot analysis, using the tau-5 antibody.

Usp14, sequence (P54578 whole entry, species assumed): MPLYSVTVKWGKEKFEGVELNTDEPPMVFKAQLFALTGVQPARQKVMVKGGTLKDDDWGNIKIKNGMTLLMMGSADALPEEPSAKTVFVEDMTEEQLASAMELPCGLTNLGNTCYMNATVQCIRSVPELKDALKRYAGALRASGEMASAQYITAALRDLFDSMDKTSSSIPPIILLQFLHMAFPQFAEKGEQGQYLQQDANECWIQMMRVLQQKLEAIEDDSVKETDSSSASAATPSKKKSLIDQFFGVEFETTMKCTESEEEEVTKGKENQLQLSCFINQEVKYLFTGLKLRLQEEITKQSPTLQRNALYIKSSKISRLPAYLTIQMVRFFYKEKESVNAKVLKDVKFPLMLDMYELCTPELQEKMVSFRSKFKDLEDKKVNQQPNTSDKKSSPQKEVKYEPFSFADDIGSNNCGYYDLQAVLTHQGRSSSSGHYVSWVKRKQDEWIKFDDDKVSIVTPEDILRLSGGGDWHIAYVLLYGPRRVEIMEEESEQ

Cc1cc(C(=O)CN2CCCCC2)c(C)n1-c1ccc(Cl)cc1 [IU1-47]
Usp14 inhibition, qualitative (Usp14): more potent variant of IU1
effect on tau levels (FIG. 5A) (endogenous total tau): approximately 8%

Cc1cc(C(=O)CN2CCCC2)c(C)n1-c1ccc(F)cc1 [IU1, 1-(1-(4-fluorophenyl)-2,5-dimethyl-1H-pyrrol-3-yl)-2-(pyrrolidin-1-yl)ethanone]
Usp14 inhibition, qualitative (Usp14): inhibitor of Usp14
